A short description of this data set: Predicted half-life in humans.

Consider one compound from US20260337246A1, “METHODS FOR TREATING OBESITY” (Zealand Pharma A/S, priority 2022, published 2026).

The structures appear in SMILES notation.

`CC[C@H](C)[C@H](NC(=O)[C@H](Cc1ccccc1)NC(=O)[C@H](C)NC(=O)[C@H](CCC(N)=O)NC(=O)[C@H](C)NC(=O)[C@H](C)NC(=O)[C@H](CCCCNC(=O)COCCOCCNC(=O)COCCOCCNC(=O)CN1CCN(C(=O)CCCCCCCCCCCCCCCCCCC(=O)O)CC1)NC(=O)[C@H](CCCCN)NC(=O)[C@H](CC(=O)O)NC(=O)[C@H](CC(C)C)NC(=O)[C@H](CCC(=O)O)NC(=O)[C@@H](NC(=O)[C@H](CO)NC(=O)[C@H](Cc1ccc(O)cc1)NC(=O)[C@H](CC(=O)O)NC(=O)[C@H](CO)NC(=O)[C@@H](NC(=O)[C@H](Cc1ccccc1)NC(=O)[C@@H](NC(=O)CNC(=O)[C@H](CCC(=O)O)NC(=O)C(C)(C)NC(=O)[C@@H](N)Cc1ccc(O)cc1)[C@@H](C)O)[C@@H](C)CC)[C@@H](C)CC)C(=O)N[C@@H](CCC(=O)O)C(=O)N[C@@H](Cc1c[nH]c2ccccc12)C(=O)N[C@@H](CC(C)C)C(=O)N[C@@H](CC(C)C)C(=O)N[C@@H](C)C(=O)N[C@@H](CCC(N)=O)C(=O)NCC(=O)N1CCC[C@H]1C(=O)N[C@@H](CO)C(=O)N[C@@H](CO)C(=O)NCC(=O)N[C@@H](C)C(=O)N1CCC[C@H]1C(=O)N1CCC[C@H]1C(=O)N1CCC[C@H]1C(=O)N[C@@H](CO)C(N)=O` [Compound 41]: the “predicted half-life (in words)” value is given as “half-life supporting once-weekly dosing in humans”.
